According to patent US20250333370A1, “METHOD FOR EXTRACTING 3,5-O-DICAFFEOYLQUINIC ACID FROM HUANGSHAN GONGJU AND ITS APPLICATION IN DRUGS FOR PROTECTING AGAINST ALCOHOLIC LIVER DAMAGE” (Hefei University of Technology, priority 2024, published 2025):

Key:
α-glucosidase = settings: studies have shown; cited from earlier work
[1] = system: alcohol-induced AML-12 cells; assay: Determination of MDA, SOD, CAT and GSH content (kits); format: cell-based, mouse; settings: 260 mM alcohol
Excerpt: Excessive ROS in cells can cause oxidative reactions in proteins and unsaturated fatty acids. MDA is the final product of the oxidation of polyunsaturated fatty acids and is a marker of lipid peroxidation in cells, which is widely used in studies on oxidative stress. SOD, CAT, and GSH are important antioxidant enzymes in the body and play an important role in the body's systematic resistance to oxidative stress. […] After trypsin digestion and PBS washing, the MDA, SOD, CAT, and GSH content in the cells are detected according to the guidance of corresponding kits.

[2] = studies have shown; cited from earlier work
[3] = system: focal cerebral ischemia-reperfusion injury; settings: rats; studies have shown; cited from earlier work
[4] = system: alcohol-induced AML-12 cells; assay: Apoptosis and necrosis after alcohol damage (Hoechst, fluorescence microscope and flow cytometer); format: cell-based, mouse; settings: 260 mM alcohol
Experimental: (§1) AML-12 cells are treated with drugs (100, 200, 400 μg/mL) for 24 h, and then treated with 260 mM alcohol for 24 h. After trypsin digestion and PBS washing, probe from an apoptosis detection kit is added. First, incubation is conducted with 5 μL Hoechst (diluted in PBS) at 0° C. for 20 min. The supernatant is discarded after centrifugation, and the remaining is washed three times and resuspended in PBS. 10 μL of the resuspension is observed under a fluorescence microscope, and is further detected under a flow cytometer.

AML-12 cells = assay: MTT cell survival, toxic effect of 3,5-O-dicaffeoylquinic acid on cells; format: cell-based, mouse; settings: for cell survival rate: AML-12 cells, 24 hours, MTT
Experimental: AML-12 cells, mouse normal liver cells; 3-(4,5-dimethylthiazol-2-yl)-2,5-diphenyl-2H-tetrazolium-3-bromide (MTT), dimethyl sulfoxide (DMSO), reactive oxygen species (ROS) kit, superoxide dismutase (SOD) kit, malondialdehyde (MDA) kit, glutathione (GSH) kit; high-speed centrifuge, microplate reader, etc.
Logarithmically growing AML-12 cells are seeded into 96-well plates at a density of 0.8×10^5 cells/mL, and 100 μL of cell suspension is added to each well and incubated for 24 hours. In an alcohol treatment group, alcohol (0-1600 mM, DMEM dilution) is added to the incubator for 24 hours. In a 3,5-O-dicaffeoylquinic acid treatment group, 100 μL of 3,5-O-dicaffeoylquinic acid (100-1600 μg/mL, DMEM dilution) is added to the incubator for 24 hours. 120 μL of MTT (1 mg/mL) is added to each well and incubated for 4 h. The reaction solution is discarded; 150 μL DMSO is added, and OD value is measured at a wavelength of 490 nm after shaking for 10 minutes in the dark.

[5] = system: alcohol-damaged AML-12 cells; assay: MTT cell survival, ameliorative effect on cell alcohol damage (260 mM alcohol); format: cell-based, mouse; settings: pretreatment 24 hours, then 260 mM alcohol 24 hours
Experimental: Log-growing AML-12 cells are collected and digested, and then seeded into a 96-well plate at a density of 0.8×10^5 cells/mL per well. After 24 hours of cell proliferation, the control (and model) group is incubated with 100 μL of medium for 48 hours; the 3,5-O-dicaffeoylquinic acid treatment group is incubated with different concentrations of 3,5-O-dicaffeoylquinic acid for 24 hours, and the original medium is discarded; the cells (in model and drug treated group) are incubated in 100 μL of medium containing 260 mM alcohol for 24 hours. The absorbance measurement method is the same as the item 2 above.
Cell survival rate is calculated using the following formula: […]

[6] = system: alcohol-induced AML-12 cells; assay: ROS content determination (DCFH-DA, fluorescence microscope and flow cytometer); format: cell-based, mouse; settings: 260 mM alcohol
Experimental: as §1, with “washing, the” for “washing,”, “the ROS” for “an apoptosis detection”, “1 mL of DCFH-DA” for “5 μL Hoechst”, “serum-free DMEM)” for “PBS)”, “37°” for “0°”

[7] = 400 μg/mL pretreatment, fluorescence microscope

## O=C(C=Cc1ccc(O)c(O)c1)OC1CC(O)(C(=O)O)CC(OC(=O)C=Cc2ccc(O)c(O)c2)C1O (single isomer, unassigned) [3,5-O-dicaffeoylquinic acid]
α-glucosidase
  α-glucosidase inhibition: inhibits
[1]; 200 μg/mL pretreatment
  MDA content in cells, concentration of best effect: most significant effect
[1]; 400 μg/mL pretreatment, increases from 53.39±2.16 mg/g protein
  GSH content: 82.14±1.67 mg/g protein
[1]; 100-600 μg/mL pretreatment
  activity of CAT in cells: significantly restore
  activity of SOD in cells: significantly restore
[1]; pretreatment at different concentrations
  MDA content in cells: significantly reduces
[2]
  antioxidant effects: certain antioxidant effects
[3]
  focal cerebral ischemia-reperfusion injury: can mitigate
[4]; [7]
  fluorescence intensity of apoptosis compared with the alcohol-treated group: significantly reduces
[4]; pretreatment with different concentrations, with the increase in drug concentration
  cell survival rate (apoptosis/necrosis flow cytometry): gradually increases
AML-12 cells; 0-800 μg/mL
  cell survival rate: increases significantly
AML-12 cells; 1600 μg/mL, P<0.05
  cell survival rate: decreases significantly
AML-12 cells; concentration range of 0-800 μg/mL
  toxicity to AML-12 cells: non-toxic
[5]; 400 μg/mL, highest cell survival rate
  increase of cell survival rate compared with the model group: 19.90%
[5]; 100-400 g/mL (so in the source)
  survival rate of alcohol-damaged AML-12 cells compared with model group: significantly increase
[6]; [7]
  ROS fluorescence intensity of the cells compared to the alcohol-treated group (model group): significantly reduces
[6]; 100, 200, 400 μg/mL pretreatment, fluorescence microscope
  fluorescence intensity of ROS versus model group, dependence on drug concentration: gradually weakens with the increase of drug concentration
[6]; pretreatment with different concentrations, as the drug concentration increases
  ROS peak fluorescence intensity, flow cytometry: shifts significantly to the right
